# Toxic doses and inconclusive results are not listed.
# System: L1210 leukemia ip in BDF1 mice, survival T/C
# Test: NCI In Vivo Anticancer Drug Screen. Data for tumor model L1210 Leukemia (intraperitoneal) in B6D2F1 (BDF1) mice
# Settings: higher = longer survival
# Outline: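 Antitumor effect is assessed in tumor-bearing animals. Survival in the compound arm is compared with a vehicle-dosed control arm and expressed as their quotient.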
# [1] = endpoint: mean survival time, dose: 100.0 mg/kg/injection, schedule: Q04DX003 (ip), vehicle: saline with Tween-80
# [2] = endpoint: mean survival time, dose: 200.0 mg/kg/injection, schedule: Q04DX003 (ip), vehicle: saline with Tween-80
# [3] = endpoint: mean survival time, dose: 400.0 mg/kg/injection, schedule: Q04DX003 (ip), vehicle: saline with Tween-80
compound,measurement,setting,value
Cc1cc(NCCCCCCNc2cc(C)nc3ccc(N)cc23)c2cc(N)ccc2n1,T/C,"endpoint: mean survival time, dose: 4.7 mg/kg/injection, schedule: Q01DX009 (ip), vehicle: saline with Tween-80",117 % of control
same,T/C,"endpoint: mean survival time, dose: 16.5 mg/kg/injection, schedule: Q01DX009 (ip), vehicle: saline",118 % of control
same,T/C,"endpoint: mean survival time, dose: 18.75 mg/kg/injection, schedule: Q01DX009 (ip), vehicle: saline with Tween-80",152 % of control
same,T/C,"endpoint: mean survival time, dose: 37.5 mg/kg/injection, schedule: Q01DX009 (ip), vehicle: saline with Tween-80",176 % of control
same,T/C,"endpoint: mean survival time, dose: 37.5 mg/kg/injection, schedule: Q01DX009 (ip), vehicle: saline",164 % of control
same,T/C,"endpoint: mean survival time, dose: 75.0 mg/kg/injection, schedule: Q01DX009 (ip), vehicle: acetone",160 % of control
same,T/C,"endpoint: mean survival time, dose: 75.0 mg/kg/injection, schedule: Q01DX009 (ip), vehicle: saline with Tween-80",150 % of control
same,T/C,"endpoint: mean survival time, dose: 75.0 mg/kg/injection, schedule: Q01DX009 (ip), vehicle: saline",182 % of control
same,T/C,"endpoint: mean survival time, dose: 150.0 mg/kg/injection, schedule: Q01DX009 (ip), vehicle: acetone",161 % of control
same,T/C,"endpoint: mean survival time, dose: 150.0 mg/kg/injection, schedule: Q01DX009 (ip), vehicle: saline with Tween-80",102 % of control
same,T/C,"endpoint: mean survival time, dose: 180.0 mg/kg/injection, schedule: Q04DX003 (ip), vehicle: Klucel (hydroxypropylcellulose) (HPC)",160 % of control
same,T/C,"endpoint: mean survival time, dose: 180.0 mg/kg/injection, schedule: Q04DX003 (ip), vehicle: saline with Tween-80",152 % of control
same,T/C,"endpoint: mean survival time, dose: 266.0 mg/kg/injection, schedule: Q04DX003 (ip), vehicle: saline with Tween-80",111 % of control
same,T/C,"endpoint: mean survival time, dose: 300.0 mg/kg/injection, schedule: Q01DX009 (ip), vehicle: saline with Tween-80",94 % of control
same,T/C,"endpoint: mean survival time, dose: 400.0 mg/kg/injection, schedule: Q04DX003 (ip), vehicle: Klucel (hydroxypropylcellulose) (HPC)",172 % of control
same,T/C,"endpoint: mean survival time, dose: 600.0 mg/kg/injection, schedule: Q04DX003 (ip), vehicle: Klucel (hydroxypropylcellulose) (HPC)",197 % of control
same,T/C,"endpoint: mean survival time, dose: 600.0 mg/kg/injection, schedule: Q04DX003 (ip), vehicle: saline with Tween-80",198 % of control
same,T/C,"endpoint: median survival time, dose: 4.0 mg/kg/injection, schedule: Q01DX001 (ip), vehicle: lactic acid",101 % of control
same,T/C,"endpoint: median survival time, dose: 8.0 mg/kg/injection, schedule: Q01DX001 (ip), vehicle: lactic acid",100 % of control
same,T/C,"endpoint: median survival time, dose: 16.0 mg/kg/injection, schedule: Q01DX001 (ip), vehicle: lactic acid",103 % of control
same,T/C,"endpoint: median survival time, dose: 16.0 mg/kg/injection, schedule: Q01DX001 (oral), vehicle: citric acid",97 % of control
same,T/C,"endpoint: median survival time, dose: 16.0 mg/kg/injection, schedule: Q01DX001 (oral), vehicle: lactic acid",100 % of control
same,T/C,"endpoint: median survival time, dose: 32.0 mg/kg/injection, schedule: Q01DX001 (ip), vehicle: lactic acid",111 % of control
same,T/C,"endpoint: median survival time, dose: 32.0 mg/kg/injection, schedule: Q01DX001 (oral), vehicle: citric acid",103 % of control
same,T/C,"endpoint: median survival time, dose: 32.0 mg/kg/injection, schedule: Q01DX001 (oral), vehicle: lactic acid",100 % of control
same,T/C,"endpoint: median survival time, dose: 64.0 mg/kg/injection, schedule: Q01DX001 (ip), vehicle: Klucel (hydroxypropylcellulose) (HPC)",120 % of control
same,T/C,"endpoint: median survival time, dose: 64.0 mg/kg/injection, schedule: Q01DX001 (oral), vehicle: citric acid",102 % of control
same,T/C,"endpoint: median survival time, dose: 64.0 mg/kg/injection, schedule: Q01DX001 (oral), vehicle: lactic acid",103 % of control
same,T/C,"endpoint: median survival time, dose: 128.0 mg/kg/injection, schedule: Q01DX001 (ip), vehicle: Klucel (hydroxypropylcellulose) (HPC)",153 % of control
same,T/C,"endpoint: median survival time, dose: 128.0 mg/kg/injection, schedule: Q01DX001 (oral), vehicle: citric acid",97 % of control
same,T/C,"endpoint: median survival time, dose: 128.0 mg/kg/injection, schedule: Q01DX001 (oral), vehicle: lactic acid",95 % of control
same,T/C,"endpoint: median survival time, dose: 256.0 mg/kg/injection, schedule: Q01DX001 (ip), vehicle: Klucel (hydroxypropylcellulose) (HPC)",175 % of control
same,T/C,"endpoint: median survival time, dose: 256.0 mg/kg/injection, schedule: Q01DX001 (oral), vehicle: citric acid",87 % of control
same,T/C,"endpoint: median survival time, dose: 256.0 mg/kg/injection, schedule: Q01DX001 (oral), vehicle: lactic acid",94 % of control
same,T/C,"endpoint: median survival time, dose: 512.0 mg/kg/injection, schedule: Q01DX001 (ip), vehicle: Klucel (hydroxypropylcellulose) (HPC)",180 % of control
CCCOP(=O)(OCCC)C(OC(=O)C(C)(C)SC(=S)CCC)=C(C)C,T/C,[1],97 % of control
same,T/C,[2],100 % of control
same,T/C,[3],94 % of control
Clc1ccc2scc3c4ccccc4nc-3c2c1,T/C,"endpoint: mean survival time, dose: 100.0 mg/kg/injection, schedule: Q04DX003 (ip), vehicle: acetone",102 % of control
C[C@]12CCCC[C@@H]1CC[C@@H]1[C@@H]2[C@@H](O)C[C@]2(C)[C@@H](O)CC[C@@H]12,T/C,"endpoint: mean survival time, dose: 50.0 mg/kg/injection, schedule: Q01DX009 (ip), vehicle: saline with Tween-80",98 % of control
same,T/C,"endpoint: mean survival time, dose: 100.0 mg/kg/injection, schedule: Q01DX009 (ip), vehicle: saline with Tween-80",90 % of control
same,T/C,"endpoint: mean survival time, dose: 200.0 mg/kg/injection, schedule: Q01DX009 (ip), vehicle: saline with Tween-80",95 % of control
CCOC(=O)c1cnc(SC)nc1Nc1ccc(C)cc1,T/C,[1],97 % of control
same,T/C,[2],91 % of control
same,T/C,[3],86 % of control
